Molecular target: T1, TRPML1 (Homo sapiens, UniProt Q9GZU1)
T1 construct: expressed in transfected cells; host or cells: HEK T-REx cells stably expressing GCaMP6f and TRPML1
Assay: Cellular TRPML1 assay (FLIPR, GCaMP6f calcium read-out)
Assay type: cell-based
Settings: HEKT-REx/GCaMP6f/TRPML1 cells, FLIPR TETRA, kinetic response over 300 seconds; read-out: TRPML1 FLIPR pEC50 (converted)
Experimental: Example A: Cellular TRPML1 Assay
The final clone for the TRPML1 assay is HEKT-REx/GCaMP6f/TRPML1. GCaMP6f is a genetically encoded calcium indicator that is stably expressed in this cell line and used as a fluorescent read-out.
Experiments were performed in 384 MTP format. Cells are seeded at 15000 cells/well in 20 μl/well of Optimem+0.5% FBS without selection antibiotics. Twenty-four hours later, cells are assayed for the response to various compounds using the Ca^2+ sensitive GCaMP6f protein stably expressed in the cells as readout.
The experiment was performed in a 384-well format according to the following procedures: • 24 h after seeding, the cells were pre-incubated at room temperature for about 10 min. • Started the experiment at the FLIPR^TETRA by injecting 10 μL/w of 3× concentrated test compounds and controls in Ca^2+ free Tyrode's buffer. Monitored the kinetic response over a period of 300 seconds. • Final DMSO concentration: 0.5%
Data from FLIPR^TETRA measurements were analyzed with the Genedata Screener© software.

T1 sequence (Q9GZU1 whole entry): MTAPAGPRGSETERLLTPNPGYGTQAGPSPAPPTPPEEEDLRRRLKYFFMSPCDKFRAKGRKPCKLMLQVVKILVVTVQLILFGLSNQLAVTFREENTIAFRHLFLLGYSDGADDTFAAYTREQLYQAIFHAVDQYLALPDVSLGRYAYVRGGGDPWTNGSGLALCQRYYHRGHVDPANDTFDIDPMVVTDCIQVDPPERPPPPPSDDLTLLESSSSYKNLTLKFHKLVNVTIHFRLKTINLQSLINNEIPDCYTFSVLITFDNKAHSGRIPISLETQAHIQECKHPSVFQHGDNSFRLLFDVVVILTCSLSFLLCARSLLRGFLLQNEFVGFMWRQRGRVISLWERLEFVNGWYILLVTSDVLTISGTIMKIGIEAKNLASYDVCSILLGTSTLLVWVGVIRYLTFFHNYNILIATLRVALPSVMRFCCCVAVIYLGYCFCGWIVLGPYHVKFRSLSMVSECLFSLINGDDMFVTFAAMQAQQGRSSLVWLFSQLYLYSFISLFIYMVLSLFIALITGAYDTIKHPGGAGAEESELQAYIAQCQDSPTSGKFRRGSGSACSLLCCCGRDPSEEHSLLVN

| SMILES | EC50 [nM] |
| --- | --- |
| CC1(C)CN(c2nc(C(=O)Nc3cc(F)c(OC4CCCOC4)c(F)c3)c(CC(F)(F)F)o2)C1 (racemic) [Example 72, N-(3,5-difluoro-4-((tetrahydro-2H-pyran-3-yl)oxy)phenyl)-2-(3,3-dimethylazetidin-1-yl)-5-(2,2,2-trifluoroethyl)oxazole-4-carboxamide] | 10 to 1000 |
| O=C(Nc1ccc(OC2CCCC2(F)F)c(F)c1)c1nc(N2Cc3ccccc3C2)oc1CC(F)(F)F (stereo not drawn) [Example 1, N-{4-[(2,2-difluorocyclopentyl)oxy]-3-fluorophenyl}-2-(2,3-dihydro-1H-isoindol-2-yl)-5-(2,2,2-trifluoroethyl)-1,3-oxazole-4-carboxamide] | 10000 to 100000 |
| O=C(Nc1ccc(OC2CCCC2(F)F)c(F)c1)c1nc(N2CCc3ccccc32)oc1CC(F)(F)F (stereo not drawn) [Example 5, N-(4-((2,2-difluorocyclopentyl)oxy)-3-fluorophenyl)-2-(indolin-1-yl)-5-(2,2,2-trifluoroethyl)oxazole-4-carboxamide] | 1000 to 10000 |
| O=C(Nc1ccc(OC2CCCC2(F)F)c(F)c1)c1nc(N2C3CCC2CC3)oc1CC(F)(F)F (stereo not drawn) [Example 9, 2-{7-azabicyclo[2.2.1]heptan-7-yl}-N-{4-[(2,2-difluorocyclopentyl)oxy]-3-fluorophenyl}-5-(2,2,2-trifluoroethyl)oxazole-4-carboxamide] | 1000 to 10000 |
| O=C(Nc1ccc(OC2CCCC2(F)F)c(F)c1)c1nc(N2CCCC23CC3)oc1CC(F)(F)F (stereo not drawn) [Example 11, N-(4-((2,2-difluorocyclopentyl)oxy)-3-fluorophenyl)-2-(4-azaspiro[2.4]heptan-4-yl)-5-(2,2,2-trifluoroethyl)oxazole-4-carboxamide] | 1000 to 10000 |
| O=C(Nc1ccc(OC2CCCC2(F)F)c(F)c1)c1nc(N2CC3(CCOCC3)C2)oc1CC(F)(F)F (stereo not drawn) [Example 14, N-(4-((2,2-difluorocyclopentyl)oxy)-3-fluorophenyl)-2-(7-oxa-2-azaspiro[3.5]nonan-2-yl)-5-(2,2,2-trifluoroethyl)oxazole-4-carboxamide] | 1000 to 10000 |

The remaining lines, values ahead:

| EC50 [nM] | SMILES |
| --- | --- |
| 1000 to 10000 | N#CC1CN(c2nc(C(=O)Nc3ccc(OC4CCCC4(F)F)c(F)c3)c(CC(F)(F)F)o2)C1 (stereo not drawn) [Example 2, 2-(3-cyanoazetidin-1-yl)-N-{4-[(2,2-difluorocyclopentyl)oxy]-3-fluorophenyl}-5-(2,2,2-trifluoroethyl)-1,3-oxazole-4-carboxamide] |
| 1000 to 10000 | COCC1CCN(c2nc(C(=O)Nc3ccc(OC4CCCC4(F)F)c(F)c3)c(CC(F)(F)F)o2)C1 (stereo not drawn) [Example 7, N-(4-((2,2-difluorocyclopentyl)oxy)-3-fluorophenyl)-2-(3-(methoxymethyl)pyrrolidin-1-yl)-5-(2,2,2-trifluoroethyl)oxazole-4-carboxamide] |
| 1000 to 10000 | COC1CN(c2nc(C(=O)Nc3ccc(OC4CCCC4(F)F)c(F)c3)c(CC(F)(F)F)o2)C1 (stereo not drawn) [Example 8, N-(4-((2,2-difluorocyclopentyl)oxy)-3-fluorophenyl)-2-(3-methoxyazetidin-1-yl)-5-(2,2,2-trifluoroethyl)oxazole-4-carboxamide] |
| 1000 to 10000 | O=C(Nc1ccc(OC2CCCC2(F)F)c(F)c1)c1nc(N2CC3C(C2)C3(F)F)oc1CC(F)(F)F (stereo not drawn) [Example 10, 2-{6,6-difluoro-3-azabicyclo[3.1.0]hexan-3-yl}-N-{4-[(2,2-difluorocyclopentyl)oxy]-3-fluorophenyl}-5-(2,2,2-trifluoroethyl)oxazole-4-carboxamide] |
| 1000 to 10000 | O=C(Nc1ccc(OC2CCCC2(F)F)c(F)c1)c1nc(N2CC3CCOC3C2)oc1CC(F)(F)F (stereo not drawn) [Example 12, N-(4-((2,2-difluorocyclopentyl)oxy)-3-fluorophenyl)-2-(hexahydro-5H-furo[2,3-c]pyrrol-5-yl)-5-(2,2,2-trifluoroethyl)oxazole-4-carboxamide] |
| 10 to 1000 | O=C(Nc1ccc(OC2CCCC2(F)F)c(F)c1)c1nc(N2CC(F)(F)C2)oc1CC(F)(F)F (stereo not drawn) [Example 16, 2-(3,3-difluoroazetidin-1-yl)-N-{4-[(2,2-difluorocyclopentyl)oxy]-3-fluorophenyl}-5-(2,2,2-trifluoroethyl)oxazole-4-carboxamide] |

Reference: patent publication US12098145B2 (Libra Therapeutics, Inc., priority 2022, dated 2024)
